# Test results reported in US20260265321A1, “PEPTIDE AND POLYPEPTIDE INHIBITING THE NF-KB SIGNALING PATHWAY” (Centre National de la Recherche Scientifique, priority 2023, published 2026).
# Residues, ends and D or L forms follow the SMILES beside them.
# Key:
# [1] = target: T1, endogenous IKK immunoprecipitated from HEK293T cells (Homo sapiens, UniProt O14920+O15111); assay: In vitro kinase assay with endogenous IKK, inhibition by synthetic peptides; type: biochemical; conditions: 500 μM synthetic peptide, 1 μM 6×His-IκBα wt, 30° C.
# T1 construct: endogenous canonical IKK, which was immunoprecipitated from HEK293T cells using an anti-NEMO antibody; endogenous in cells; host or cells: HEK293T cells induced with TNFα; anti-NEMO immunoprecipitate on protein G beads
# T1 sequence (O14920 whole entry): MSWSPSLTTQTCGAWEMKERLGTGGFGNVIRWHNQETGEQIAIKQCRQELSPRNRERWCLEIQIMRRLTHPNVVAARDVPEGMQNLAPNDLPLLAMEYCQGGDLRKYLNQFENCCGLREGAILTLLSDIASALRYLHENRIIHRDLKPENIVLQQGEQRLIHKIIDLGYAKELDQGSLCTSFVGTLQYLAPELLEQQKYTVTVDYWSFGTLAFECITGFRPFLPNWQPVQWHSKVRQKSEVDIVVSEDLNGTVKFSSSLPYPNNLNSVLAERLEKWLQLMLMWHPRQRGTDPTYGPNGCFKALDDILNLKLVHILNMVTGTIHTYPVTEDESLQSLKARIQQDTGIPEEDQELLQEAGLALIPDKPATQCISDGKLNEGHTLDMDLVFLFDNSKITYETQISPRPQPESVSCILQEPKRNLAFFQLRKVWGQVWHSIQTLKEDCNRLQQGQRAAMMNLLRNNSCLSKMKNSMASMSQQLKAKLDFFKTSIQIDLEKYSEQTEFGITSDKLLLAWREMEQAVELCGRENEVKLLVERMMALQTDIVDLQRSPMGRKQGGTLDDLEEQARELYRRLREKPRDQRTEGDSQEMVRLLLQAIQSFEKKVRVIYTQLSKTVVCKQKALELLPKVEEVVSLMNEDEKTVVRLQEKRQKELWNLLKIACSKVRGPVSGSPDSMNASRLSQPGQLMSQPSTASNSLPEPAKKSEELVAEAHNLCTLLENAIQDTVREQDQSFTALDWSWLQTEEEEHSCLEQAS
# T1 sequence (O15111 whole entry): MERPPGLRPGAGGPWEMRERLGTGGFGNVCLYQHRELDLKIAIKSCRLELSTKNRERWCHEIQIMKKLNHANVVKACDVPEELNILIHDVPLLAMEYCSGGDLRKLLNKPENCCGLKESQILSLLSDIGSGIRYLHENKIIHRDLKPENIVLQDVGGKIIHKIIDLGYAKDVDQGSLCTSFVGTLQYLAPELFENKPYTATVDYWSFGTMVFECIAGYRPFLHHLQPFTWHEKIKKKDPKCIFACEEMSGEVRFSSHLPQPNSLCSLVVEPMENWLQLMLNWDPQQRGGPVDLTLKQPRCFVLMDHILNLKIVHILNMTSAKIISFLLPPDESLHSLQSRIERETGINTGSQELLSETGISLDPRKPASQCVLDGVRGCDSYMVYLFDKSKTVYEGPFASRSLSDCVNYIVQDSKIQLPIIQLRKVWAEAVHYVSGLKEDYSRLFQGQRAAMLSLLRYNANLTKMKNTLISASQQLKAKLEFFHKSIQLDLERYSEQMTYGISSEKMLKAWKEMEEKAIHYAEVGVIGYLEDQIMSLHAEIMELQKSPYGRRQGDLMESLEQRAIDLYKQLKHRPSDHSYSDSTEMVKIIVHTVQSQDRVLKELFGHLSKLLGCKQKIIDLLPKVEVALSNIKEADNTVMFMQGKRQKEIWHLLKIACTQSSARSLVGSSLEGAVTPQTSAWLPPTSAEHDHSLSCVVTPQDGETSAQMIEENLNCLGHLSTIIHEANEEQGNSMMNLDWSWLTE
# T1 sequence (Q9Y6K9 whole entry partner): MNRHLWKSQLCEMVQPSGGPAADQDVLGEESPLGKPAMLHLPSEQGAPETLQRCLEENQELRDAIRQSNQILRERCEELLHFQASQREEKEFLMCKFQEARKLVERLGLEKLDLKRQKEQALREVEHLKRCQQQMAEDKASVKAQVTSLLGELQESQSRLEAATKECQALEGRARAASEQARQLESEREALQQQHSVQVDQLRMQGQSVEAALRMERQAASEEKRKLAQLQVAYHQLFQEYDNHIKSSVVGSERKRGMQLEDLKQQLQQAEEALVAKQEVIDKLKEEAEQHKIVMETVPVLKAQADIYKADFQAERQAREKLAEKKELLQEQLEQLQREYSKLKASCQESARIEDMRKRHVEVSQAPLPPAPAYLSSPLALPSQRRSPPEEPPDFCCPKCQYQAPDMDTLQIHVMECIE
# Procedure: Using endogenous IKK complex. IKK was immunoprecipitated from HEK293T cells. 3 petri dishes (100×15 mm, corning) of cells at 70% confluence were induced with 10 nM recombinant TNFα (abcam, #ab9642) for 10 minutes, and then washed twice by cold PBS. The whole-cell extracts were prepared by addition of 1 ml of lysis buffer (50 mM HEPES pH 8, 200 mM NaCl, 0.5% NP-40, 1 mM EDTA, 10 mM KCl, 1 mM DTT, Roche cOmplete™ protease inhibitors cocktail, 50 mM NaF, 50 mM b-glycerophosphate and 1 mM Na orthovanadate) and homogenized by passing through a 21-gauge needle for 5-10 times. After 30 minutes of incubation on ice, the extracts were centrifuged at 11,000 g and at 4° C. The cleared supernatants were incubated with 15 μl of anti-NEMO antibody (Santa Cruz biotech, #F-10) overnight at 4° C. and, then, immunoprecipitated with 150 μl of protein G Sepharose beads (GE, #17-0618-01) for 2 hours at 4° C. […]
# Kinase activity reactions were performed in kinase buffer (defined above) using 50 μl immunoprecipitant and 1 μM of purified full-length 6×His-IκBα wt or mutant constructs. […] The reaction products were analysed on a 10% SDS-PAGE gel and Western blotting using anti-phospho-IκBα (Cell Signaling Technology, #9246), anti-IKKβ (cell signaling, #2684s) and anti-6×His (sigma, #SAB4301134) antibodies. The relative amounts of phosphorylated IκBα were quantified using ImageJ.
# [2] = target: T2, IKKα(10-667) EE homodimer (Homo sapiens, UniProt O15111, S176E/S180E); assay: Isothermal titration calorimetry (ITC) of peptide binding to IKKα homodimer; conditions: for TΔS / ΔG / ΔH / Kd: IKKα
# T2 construct: an equivalent construct of the IKKα homodimer (i.e. IKKα(10-667) S176E/S180E, named IKKα(10-667) EE hereafter); 6×His (followed by TEV site) (N, cleaved yes); made in house; host or cells: Sf21 insect cells (baculovirus)
# T2 sequence (O15111 10-667 S176E/S180E): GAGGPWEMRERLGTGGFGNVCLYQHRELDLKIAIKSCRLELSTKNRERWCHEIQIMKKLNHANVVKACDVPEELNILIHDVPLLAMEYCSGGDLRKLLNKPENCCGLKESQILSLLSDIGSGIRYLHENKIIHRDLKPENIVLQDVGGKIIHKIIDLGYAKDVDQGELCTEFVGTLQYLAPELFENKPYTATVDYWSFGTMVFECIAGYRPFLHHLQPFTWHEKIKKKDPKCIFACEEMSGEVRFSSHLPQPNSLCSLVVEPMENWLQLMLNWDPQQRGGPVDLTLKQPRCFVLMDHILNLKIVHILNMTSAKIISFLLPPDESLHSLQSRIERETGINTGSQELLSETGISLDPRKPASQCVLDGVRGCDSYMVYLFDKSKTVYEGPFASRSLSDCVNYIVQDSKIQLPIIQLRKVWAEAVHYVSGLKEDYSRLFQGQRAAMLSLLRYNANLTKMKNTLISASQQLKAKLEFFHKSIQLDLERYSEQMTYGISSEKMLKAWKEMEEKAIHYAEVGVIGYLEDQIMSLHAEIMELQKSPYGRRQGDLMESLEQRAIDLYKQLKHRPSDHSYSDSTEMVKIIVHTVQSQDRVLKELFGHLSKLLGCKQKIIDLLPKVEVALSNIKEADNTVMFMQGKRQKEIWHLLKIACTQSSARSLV
# Procedure: All experiments were performed in ITC buffer (20 mM HEPES pH 8.0, 150 mM NaCl, 1 mM TCEP) unless otherwise stated. Purified IKKα(10-667) EE and IKKβ(1-669) EE protein samples were dialyzed overnight against ITC buffer at 4° C. Just before the ITC experiments, IKKα or IKKβ samples were concentrated, incubated at room temperature for 30 minutes and centrifuged at 11000 g to remove eventual precipitate. The final concentrations of IKKα and IKKβ in the sample cell varied between 22 and 50 μM depending on the measurement. HPLC purified synthetic peptides (IκBα pep) comprising residues 297-317 of IκBα were further desalted using a Nap5 (GE Healthcare, #17-0853-01) column equilibrated in milliQ water, lyophilized and then resuspended in ITC buffer. The concentration of peptides in the syringe varied between 220 and 975 μM depending on the measurement.
# All ITC measurements were performed using a PEAQ-ITC MALVERN instrument. The titration parameters were set as following: temperature 25° C., reference power 10 μcal/s, feedback=high, stirring speed 750 RPM, initial delay 60 s, first injection 0.4 μl in 0.8 s and the remaining 19 injections were 2 μL in 4 s with 120 s of spacing. The data were fitted to a 1:1 binding model. All data were processed using NITPIC software and global fitting of two datasets was carried out using SEDPHAD.
# To evaluate binding affinities, isothermal titration calorimetry (ITC) experiments were performed using a synthetic peptide that comprises the YDDφXφ motif plus the N-terminal acidic patch (residues 297-317, named IκBα pep hereafter) and purified IKKβ(1-669) EE homodimer or an equivalent construct of the IKKα homodimer (i.e. IKKα(10-667) S176E/S180E, named IKKα(10-667) EE hereafter). […] ITC analyses on the IKKα/β heterodimer were prevented by strong aggregation propensity at the concentrations required for these experiments.
# All ITC experiments were performed at 25° C. The data were fitted to a 1:1 binding model. N refers to the binding stoichiometry of IKKα/β: pep, meaning that approximately half of total IKKα/β concentration binds pep ligand in agreement with the dimer form of IKKα/β being binding competent. The values for the IKKα interaction with IRF7 pep should be regarded as estimates due to low affinity and weakly exothermic binding, and therefore high experimental error and fitting uncertainty. All data were processed using NITPIC software and global fitting of two datasets was carried out using SEDPHAD.
enhancement of affinity to IKKα relative to IκBα pep wt [2],Kd [2],SMILES,inhibition of IκBα phosphorylation (Ser32/Ser36) [1],"N (binding stoichiometry of IKKα: pep) ([2]; 25° C., 1:1 binding model)",TΔS ([2]; 25° C.),ΔG ([2]; 25° C.),ΔH ([2]; 25° C.),"Kd ([2]; 25° C., 1:1 binding model)"
25 fold,0.35 µM,CC(C)C[C@H](NC(=O)[C@@H](NC(=O)[C@H](CC(C)C)NC(=O)[C@H](CCCNC(=N)N)NC(=O)[C@H](CCC(N)=O)NC(=O)CNC(=O)CNC(=O)[C@H](Cc1ccccc1)NC(=O)[C@@H](NC(=O)[C@H](CC(C)C)NC(=O)[C@H](CC(=O)O)NC(=O)[C@H](CC(=O)O)NC(=O)[C@H](Cc1ccc(O)cc1)NC(=O)[C@@H]1CCCN1C(=O)[C@H](CC(C)C)NC(=O)[C@H](CCC(=O)O)NC(=O)[C@H](CC(=O)O)NC(=O)[C@H](CCC(=O)O)NC(=O)[C@@H](NC(=O)[C@H](Cc1ccccc1)NC(=O)[C@@H](N)CCC(=O)O)[C@@H](C)O)C(C)C)[C@@H](C)O)C(=O)O [IkBα pep C308L] (H-EFTEDELPYDDLVFGGQRLTL-OH; N-terminus and C-terminus assumed),inhibit IκBα phosphorylation more efficiently than the YD/SS negative control peptide,0.65,-4.71 kcal/mol,-8.80 kcal/mol,-13.5 kcal/mol,–
–,–,CC(C)C[C@H](NC(=O)[C@@H](NC(=O)[C@H](CC(C)C)NC(=O)[C@H](CCCNC(=N)N)NC(=O)[C@H](CCC(N)=O)NC(=O)CNC(=O)CNC(=O)[C@H](Cc1ccccc1)NC(=O)[C@@H](NC(=O)[C@H](CS)NC(=O)[C@H](CC(=O)O)NC(=O)[C@H](CC(=O)O)NC(=O)[C@H](Cc1ccc(O)cc1)NC(=O)[C@@H]1CCCN1C(=O)[C@H](CC(C)C)NC(=O)[C@H](CCC(=O)O)NC(=O)[C@H](CC(=O)O)NC(=O)[C@H](CCC(=O)O)NC(=O)[C@@H](NC(=O)[C@H](Cc1ccccc1)NC(=O)[C@@H](N)CCC(=O)O)[C@@H](C)O)C(C)C)[C@@H](C)O)C(=O)O [IκBα pep] (H-EFTEDELPYDDCVFGGQRLTL-OH; N-terminus and C-terminus assumed),inhibit IκBα phosphorylation more efficiently than the YD/SS negative control peptide,0.62,-8.35 kcal/mol,-6.88 kcal/mol,-15.2 kcal/mol,9 µM
